Reference: patent EP4553080A1, “NUCLEOSIDE DERIVATIVES AS ANTIVIRAL AGENTS AGAINST CORONAVIRUSES” (Ustav Organicke Chemie a Biochemie AV CR, v.v.i., priority 2023, dated 2025)
pIC50: −log10 of the molar value.

biological target: nsp14 methyltransferase from SARS-CoV-2 (Severe acute respiratory syndrome coronavirus 2, UniProt P0DTD1); experiment: Nsp14 MTase activity inhibition in vitro (EchoMS assay); format: biochemical; details: recombinant nsp14 protein expressed in E. coli; dose-response curve

First: Cc1ncnc(-c2ccccc2)c1CSC[C@H]1O[C@@H](n2cc(-c3ccc(C#N)cc3)c3c(N)ncnc32)[C@H](O)[C@@H]1O [Compound 232b, 4-(4-Amino-7-((2R,3R,4S,5S)-3,4-dihydroxy-5-((((4-methyl-6-phenylpyrimidin-5-yl)methyl)thio)methyl)tetrahydrofuran-2-yl)-7H-pyrrolo[2,3-d]pyrimidin-5-yl)benzonitrile]
Second: Cc1ncnc(-c2ccccc2)c1CSC[C@H]1O[C@@H](n2cc(I)c3c(N)ncnc32)[C@H](O)[C@@H]1O [Compound 246, (2R,3R,4S,5S)-2-(4-Amino-5-iodo-7H-pyrrolo[2,3-d]pyrimidin-7-yl)-5-((((4-methyl-6-phenylpyrimidin-5-yl)methyl)thio)methyl)tetrahydrofuran-3,4-diol]
The pIC50 of the first is lower: 7.00 to 7.52 for the first, 7.52 to 8.00 for the second. The second is the more potent here.

First: Cc1noc(-c2ccc(N)cc2)c1CSC[C@H]1O[C@@H](n2cc(-c3ccc(C#N)cc3)c3c(N)ncnc32)[C@H](O)[C@@H]1O [Compound 234b, 4-(4-Amino-7-((2R,3R,4S,5S)-5-((((5-(4-aminophenyl)-3-methylisoxazol-4-yl)methyl)thio)methyl)-3,4-dihydroxytetrahydrofuran-2-yl)-7H-pyrrolo[2,3-d]pyrimidin-5-yl)benzonitrile]
Second: Cc1ccc(-c2onc(C)c2CSC[C@H]2O[C@@H](n3cc(-c4ccc(C#N)cc4)c4c(N)ncnc43)[C@H](O)[C@@H]2O)cc1C [Compound 235b, 4-(4-Amino-7-((2R,3R,4S,5S)-5-((((5-(3,4-dimethylphenyl)-3-methylisoxazol-4-yl)methyl)thio)methyl)-3,4-dihydroxytetrahydrofuran-2-yl)-7H-pyrrolo[2,3-d]pyrimidin-5-yl)benzonitrile]
The pIC50 of the first is higher: 7.52 to 8.00 for the first, 7.00 to 7.52 for the second.

`Cc1noc(-c2ccc3c(c2)OCO3)c1CSC[C@H]1O[C@@H](n2cc(-c3ccc(C#N)cc3)c3c(N)ncnc32)[C@H](O)[C@@H]1O` [Compound 236b] and `Cc1noc(-c2ccc3c(c2)OCO3)c1CSC[C@H]1O[C@@H](n2cc(C#Cc3cncnc3)c3c(N)ncnc32)[C@H](O)[C@@H]1O` [Compound 243c, (2R,3R,4S,5S)-2-(4-Amino-5-(pyrimidin-5-ylethynyl)-7H-pyrrolo[2,3-d]pyrimidin-7-yl)-5-((((5-(benzo[d][1,3]dioxol-5-yl)-3-methylisoxazol-4-yl)methyl)thio)methyl)tetrahydrofuran-3,4-diol] fall in the same range of pIC50: 7.52 to 8.00 for the first, 7.52 to 8.00 for the second.

`Cn1cnc(-c2ccccc2)c1CSC[C@H]1O[C@@H](n2cc(C#Cc3cncnc3)c3c(N)ncnc32)[C@H](O)[C@@H]1O` [Compound 237c, (2R,3R,4S,5S)-2-(4-Amino-5-(pyrimidin-5-ylethynyl)-7H-pyrrolo[2,3-d]pyrimidin-7-yl)-5-((((1-methyl-4-phenyl-1H-imidazol-5-yl)methyl)thio)methyl)tetrahydrofuran-3,4-diol] and `Cc1ncnc(-c2ccccc2)c1CSC[C@H]1O[C@@H](n2cc(C#Cc3cncnc3)c3c(N)ncnc32)[C@H](O)[C@@H]1O` [Compound 239c, (2R,3R,4S,5S)-2-(4-Amino-5-(pyrimidin-5-ylethynyl)-7H-pyrrolo[2,3-d]pyrimidin-7-yl)-5-((((4-methyl-6-phenylpyrimidin-5-yl)methyl)thio)methyl)tetrahydrofuran-3,4-diol] fall in the same range of pIC50: 7.00 to 7.52 for the first, 7.00 to 7.52 for the second.

`Cc1nsc(-c2ccccc2)c1CSC[C@H]1O[C@@H](n2cc(C#Cc3cncnc3)c3c(N)ncnc32)[C@H](O)[C@@H]1O` [Compound 238c, (2R,3R,4S,5S)-2-(4-Amino-5-(pyrimidin-5-ylethynyl)-7H-pyrrolo[2,3-d]pyrimidin-7-yl)-5-((((3-methyl-5-phenylisothiazol-4-yl)methyl)thio)methyl)tetrahydrofuran-3,4-diol] and `Cc1nsc(-c2ccccc2)c1CSC[C@H]1O[C@@H](n2cc(I)c3c(N)ncnc32)[C@H](O)[C@@H]1O` [Compound 245, (2R,3R,4S,5S)-2-(4-Amino-5-iodo-7H-pyrrolo[2,3-d]pyrimidin-7-yl)-5-((((3-methyl-5-phenylisothiazol-4-yl)methyl)thio)methyl)tetrahydrofuran-3,4-diol] fall in the same range of pIC50: 7.00 to 7.52 for the first, 7.00 to 7.52 for the second.

`Cc1noc(-c2ccc(N)cc2)c1CSC[C@H]1O[C@@H](n2cc(C#Cc3cncnc3)c3c(N)ncnc32)[C@H](O)[C@@H]1O` [Compound 241c, (2R,3R,4S,5S)-2-(4-Amino-5-(pyrimidin-5-ylethynyl)-7H-pyrrolo[2,3-d]pyrimidin-7-yl)-5-((((5-(4-aminophenyl)-3-methylisoxazol-4-yl)methyl)thio)methyl)tetrahydrofuran-3,4-diol] and `Cc1ccc(-c2onc(C)c2CSC[C@H]2O[C@@H](n3cc(C#Cc4cncnc4)c4c(N)ncnc43)[C@H](O)[C@@H]2O)cc1C` [Compound 242c, (2R,3R,4S,5S)-2-(4-Amino-5-(pyrimidin-5-ylethynyl)-7H-pyrrolo[2,3-d]pyrimidin-7-yl)-5-((((5-(3,4-dimethylphenyl)-3-methylisoxazol-4-yl)methyl)thio)methyl)tetrahydrofuran-3,4-diol] fall in the same range of pIC50: 7.52 to 8.00 for the first, 7.52 to 8.00 for the second.

For `Cn1cnc(-c2ccccc2)c1CSC[C@H]1O[C@@H](n2cc(I)c3c(N)ncnc32)[C@H](O)[C@@H]1O` [Compound 244, (2R,3R,4S,5S)-2-(4-Amino-5-iodo-7H-pyrrolo[2,3-d]pyrimidin-7-yl)-5-((((1-methyl-4-phenyl-1H-imidazol-5-yl)methyl)thio)methyl)tetrahydrofuran-3,4-diol], the pIC50 was 7.52 to 8.00.
